Data on 13 compounds can be found in patent publication US20230227508A1, “SPLIT INTEIN-BASED SELECTION FOR PEPTIDE BINDERS” (priority 2020, published 2023).

“Also recorded” adds a separate entry of the source. No end group written: not given here.

Assay [1] deals with human microbiome-associated strains (Staphylococcus aureus, Streptococcus infantarius, Streptococcus dysgalactiae, Pediococcus acidilactici …). It counts as cell-based. Conditions: microtiter-purified RiPPs; initial test set of indicator strains.
For assay [2], the system named is indicator strains from niches of the human microbiome (Table 11). As to the kind of experiment: 96-well antimicrobial profiling, residual growth (OD600). Format: cell-based. Conditions: for antimicrobial activity (fingerprint, residual growth): set amount of SPE purified RiPP, large panel of indicator strains; for activity against strains of the alimentary tract: Bifidobacterium adolescenits, Bifidobacterium longum, Sellimonas intestinalis, Streptococcus dysgalactiae.

Assay [3] relates to methicillin-resistant Staphylococcus aureus (MRSA), vancomycin-resistant Enterococcus faecium (VRE), Streptococcus pneumoniae. As to the kind of experiment: Dilution series, dose-dependent killing of MDR clinical isolates. It counts as cell-based. The conditions noted are these: for dose-dependent antimicrobial activity against at least one strain: 2-fold serial dilution of SPE-purified peptide from liter scale fermentation.

For another assay, the system named is Lactobacillus crispatus. Nature of the assay: Antimicrobial activity against Lactobacillus crispatus. Format: cell-based. The conditions noted are these: FIG. 57D.
In assay [4] the target is SARS-CoV-2 Spike RBD (residues 328-533) as bait (Severe acute respiratory syndrome coronavirus 2, UniProt P0DTC2).
The next assay has as its target their target. Conditions: read-out: binding to their target; cited from earlier work.
A further assay deals with Streptococcus pneumoniae. As to the kind of experiment: Dilution series against Streptococcus pneumoniae. Conditions: serial dilution of SPE-purified peptide. Format: cell-based.

On to GGKNGVFKTISHECHLNTWAFLATCCS [AMK-691], for which, in assay [1], the zones of inhibition result is recorded as “varying zones of inhibition”. In addition, the “antimicrobial activity (fingerprint, residual growth)” value in assay [2] is listed as “active”. Also, the “dose-dependent antimicrobial activity against at least one strain” value (from here on “dose-dependent antimicrobial activity”) in assay [3] was “Dose-dependent antimicrobial activity”. The “activity against Lactobacillus crispatus” value with Lactobacillus crispatus was “demonstrated activity”.
Take “GWQTAFRLTMQGRCGGVFTLSYECATPHVSCG [AMK-916]”: in assay [2], the “activity against strains of the alimentary tract” value (“activity against strains” for short) is recorded as “pronounced activity” and the “antimicrobial activity (fingerprint, residual growth)” value is reported as “active”.
For the compound “GWLWGSYRDVYGVWHGPRTNFNGAGGSSEWRLVPR [AMK-1009]”, in assay [2], the “antimicrobial activity (fingerprint, residual growth)” value is recorded as “active”.
As to GLIYGKYRDVLSGARLVTPPEVALRLVPR [AMK-917], the “antimicrobial activity (fingerprint, residual growth)” value in assay [2] is “active”.
On to “VCKYGEWCEIVEI [VCKYGEWCEIVEI (SEQ ID NO: 24)]”, for which, in assay [4], the “specificity for the Spike RBD as bait over Mdm2*” value amounted to 14 fold and the “transcriptional output of circuit” value was “strong transcriptional output”.
In the case of GGDGVMHTLTHECHMNTWQFLLTCC [AMK-417], the “antimicrobial activity (fingerprint, residual growth)” value in assay [2] is given as “active”. Besides, in assay [3], the “dose-dependent antimicrobial activity” value is given as “Dose-dependent antimicrobial activity”.
Turning to “GHVELMNADKVKCKSTSTTKSCSSTSTTSVD [AMK-720]”, in assay [2], the “antimicrobial activity (fingerprint, residual growth)” value is recorded as “exceptionally broad antimicrobial activity”.
As for “microcin J25 (GGAGHVPEYFVGIGTPISFYG; ends and bridges not checked; UniProt Q9X2V7 38-58, looked up)”, the Kd at their target is 2000 nM.
Consider “GGGWYTAFKLTLAGRCGLCFTCSYECTSNNVHC [AMK-286]”, for which, in assay [2], the “activity against strains” value is reported as “pronounced activity” and the “antimicrobial activity (fingerprint, residual growth)” value is reported as “active”.
Consider “GGWFTAIQLTLAGRCGNWFTGSFECTSNNVKCG [AMK-287]”, for which, in assay [1], the zones of inhibition result is given as “varying zones of inhibition”. In addition, the “activity against other Streptococci (strains with significant activity, spectrum)” value in assay [2] (5 Streptococcal strains of the panel) was “narrow spectrum of activity”. Also, in assay [2], the “activity against strains” value was “pronounced activity” and the “antimicrobial activity (fingerprint, residual growth)” value is “active”. The “dose-dependent antimicrobial activity” value in assay [3] was “Dose-dependent antimicrobial activity”. In the assay on Streptococcus pneumoniae, the “activity against Streptococcus pneumoniae” value is listed as “pronounced activity”.
`CN[C@H](CC(C)C)C(=O)N[C@H]1C(=O)N[C@@H](CC(N)=O)C(=O)N[C@H]2C(=O)N[C@H]3C(=O)N[C@H](C(=O)N[C@H](C(=O)O)c4cc(O)cc(O)c4-c4cc3ccc4O)[C@H](O)c3ccc(c(Cl)c3)Oc3cc2cc(c3O[C@@H]2O[C@H](CO)[C@@H](O)[C@H](O)[C@H]2O[C@H]2C[C@](C)(N)[C@H](O)[C@H](C)O2)Oc2ccc(cc2Cl)[C@H]1O` [vancomycin]: on their target, the Kd is about 1000 nM.
As to GSRWWQGVLPTVSHECRMNSFQHIFTCC [AMK-687], in assay [1], the zones of inhibition entry is “varying zones of inhibition”. The “antimicrobial activity (fingerprint, residual growth)” value in assay [2] is given as “active; also recorded: remarkable antimicrobial activity”. Further, in assay [3], the “antimicrobial activity against MDR clinical isolates (potency, spectrum, in words)” value is “particularly potent and broad-spectrum antimicrobial activity against all four isolates”; the “dose-dependent antimicrobial activity” value is “Dose-dependent antimicrobial activity”. Further, in the assay on Lactobacillus crispatus, the “activity against Lactobacillus crispatus” value is “even more pronounced activity”.
For GWYWGNRRDIYGALRYANKRLVPR [AMK-1010], the “antimicrobial activity (fingerprint, residual growth)” value in assay [2] is “active”.
